Legend:
[1] = biological target: T1, TDP1 (Homo sapiens, UniProt Q9NUW8); assay: Real-time fluorescence detection of TDP1 activity, single-stranded FAM/BHQ biosensor; format: biochemical; conditions: for Inhibitory effect on TDP1 activity (in words): single-stranded fluorescent biosensor, primary screening
T1 construct: made in house; host or cells: E. coli
Description: (§1) Conditions and details for our real-time detection of TDP1 activity using the single-stranded and hairpin fluorescent biosensors were reported in our previous work[47]. Briefly, the approach consists in fluorescence intensity measurement of the reaction of quencher removal from the fluorophore-quencher coupled DNA-oligonucleotide catalysed by TDP1 in the presence of inhibitor and in the absence of it (the control samples contained 1% DMSO). Reaction mixtures (200 µl) contained TDP1 buffer (50 mM Tris-HCl, pH 8.0, 50 mM NaCl, 7 mM β-mercaptoethanol), oligonucleotide (50 nM substrate of TDP1), testable inhibitor and purified TDP1 (1.5 nM). The reactions were incubated at a constant temperature of 26 °C in a POLARstar OPTIMA fluorimeter, BMG LABTECH, GmbH, to measure fluorescence every 55 s (Ex485/Em520 nm) during the linear phase (here data from 0 to 8 min). The average values of half maximal inhibitory concentration (IC50) were determined using an eleven-point concentration response curve in three independent experiments and calculated using MARS Data Analysis 2.0 (BMG LABTECH).
To discover inhibitors of TDP1 we recently developed original single-stranded and hairpin fluorophore–quencher coupled DNA-biosensors for real-time measurement of TDP1 cleavage activity. The single-stranded substrate is a 16-mer oligonucleotide containing both 5′-FAM fluorophore donor and a quenching 3′-BHQ moiety (Figure 1(A)). When the quencher is removed by TDP1, the fluorescence intensity increases and can be measured by fluorimeter (TDP1 catalysed reaction on biosensor is shown in Figure 3(A). Fluorescence intensity declines in the presence of inhibitor, the resulting curves of the dependence of TDP1 residual activity as a function of the concentration of inhibitors were obtained using 4-parameter logistic regression fit, which was used to calculate IC50 values[47]^,[58].
For primary screening, the effect of a large group of disaccharide nucleosides and their hydrophobic derivatives on human recombinant TDP1 activity has been evaluated by fluorescent method on a single-stranded substrate described above.

[2] = test system: PARP1; parameters: method as in PMID 24079274; conditions: cited from earlier work
[3] = biological target: T1, TDP1; assay: Steady-state kinetic analysis of TDP1 reaction, single-stranded substrate; format: biochemical
Description: (§2) To determine the kinetic parameters: apparent maximum rate of enzymatic reaction (Vmax), Michaelis constant (KM), constant of inhibition (KI), and possible inhibition mechanism, steady-state kinetic experiments were carried out at five fixed concentrations of substrate with variation of inhibitor concentrations. The standard reaction mixtures (200 μl) contained 50 nM, 100 nM, 200 nM, 500 nM or 1000 nM substrate, testable inhibitor, 1.5 nM recombinant human TDP1 and reaction buffer components (50 mM Tris-HCl, pH 8.0, 50 mM NaCl, 7 mM β-mercaptoethanol). After addition of the enzyme, the reaction mixtures were incubated at a constant temperature of 26 °C and measured in a POLARstar OPTIMA fluorimeter, BMG LABTECH, GmbH, to measure fluorescence every 55 s (Ex485/Em520 nm) during the linear phase (data from 0 to 8 min). The initial data (kinetic curves) were obtained in three independent experiments and statistically processed in software OriginPro 8.6.0.
Vmax and KM decrease proportionally (Figure 6(A,B)), which corresponds to the uncompetitive type of inhibition, according to the general equation of the rate of product formation in the Michaelis–Menten kinetics.
(§3) Values of the inhibition constant (KI) were determined using Cornish–Bowden method. Similar experiments were performed for all seven tested inhibitors on two types of DNA substrates, and the results are shown in Table 4.

[4] = biological target: T1, TDP1; assay: Fluorescence anisotropy assay of TDP1-DNA substrate complex; format: binding; conditions: 3 nM single-strand oligonucleotide without quencher, 50 nM TDP1
Description: Fluorescence anisotropy was measured by using a fluorescent single-strand DNA-oligonucleotide (3 nM) without quencher at the 3′-end in the presence of the inhibitor in different concentrations (Fluorescein control, CFlu = 10^−9 M). Reaction mixtures (200 µl) contained TDP1 buffer (50 mM Tris-HCl, pH 8.0, 50 mM NaCl, 7 mM β-mercaptoethanol), a single-strand DNA-oligonucleotide without quencher (3 nM substrate of TDP1), a testable inhibitor and the purified TDP1 (50 nM). The reactions were incubated at a constant temperature of 26 °C in a POLARstar OPTIMA fluorimeter, BMG LABTECH, GmbH, to measure fluorescence anisotropy every 55 s (Ex482/Em530 nm) during the linear phase (from 0 to 8 min) in two independent experiments.
Fluorescence anisotropy (r) was calculated by using the Equation (1): (1) r = (III–I⊥)/(III+ 2I⊥)
The dependence of the anisotropy on the concentration of the inhibitor was determined using a six-point response curve in two independent experiments and calculated using MARS Data Analysis 2.0 (BMG LABTECH).
To obtain some information about interaction of disaccharide nucleosides with TDP1, anisotropy of the fluorescent DNA substrate was measured. We used single-stranded oligonucleotide without a quencher at the 3′-end in the presence of testable inhibitors at different concentrations.

[5] = biological target: T1, TDP1; assay: Steady-state kinetic analysis of TDP1 reaction, double-stranded (hairpin) substrate; format: biochemical
Description: as §2, §3

[6] = test system: A-549 cell line (adenocarcinomic human alveolar basal epithelial cells); assay: MTT test, cytotoxicity and combination with topotecan, A-549; format: cell-based; conditions: A-549 cells
Description: (§4) Tumour cell line A549 (adenocarcinomic human alveolar basal epithelial cells) and noncancerous cell line WI-38 (fibroblasts derived from lung tissue of a 3 months gestation […] fetus) were used in cell-based experiments to determine the cytotoxicity of inhibitors and their effect on antitumour drug topotecan using standard MTT test[48]. Cells were incubated in Iscove’s Modified Dulbecco’s Medium (IMDM) supplemented with 10% fetal bovine serum and 40 µg/ml gentamicin, 10 U/ml penicillin, […], 0.25 µg/ml amphotericin at 37 °C and 5% CO2 for 24 h in a CO2 incubator; the optical density of the final solution was measured in the wells of the microplate at 570 nm and 620 nm wavelengths using a MultiScan FC (Thermo Scientific) microplate reader.
(§5) To study the effect of inhibitors on the cytotoxic effect of a well-known antitumour drug, the topotecan of the manufacturer “ACTAVIS GROUP PTC ehf.” was used. First of all, the 50% cytotoxic concentration (CC50) for topotecan and each inhibitor were determined to produce a defined single-agent effect. Second, three independent MTT-tests were performed with each inhibitor in combination with topotecan. Then, the synergistic coefficient (SC) was calculated according to the following formula (2)[49]: (2) SC= CC50 tpc,(+I)/CC50 tpc+CC50 I, (+tpc)/CC50 I,
(§6) CC50 tpc,(+I) and CC50 I,(+tpc) are the concentrations of topotecan and inhibitor used in combination to achieve 50% drug effect. CC50 tpc and CC50 I are the concentrations for single agents to achieve the same effect. SC values of less than, equal to, or more than 1 indicates synergy, additivity, and antagonism, respectively. The results were calculated and statistically processed in Microsoft Excel.

[7] = biological target: T2, SCAN1 (mutant form of TDP1 with H493R substitution) (Homo sapiens, UniProt Q9NUW8, H493R); assay: Fluorescence real-time assay on mutant TDP1 (SCAN1), single-stranded oligonucleotide; format: biochemical
T2 construct: made in house; host or cells: E. coli
T2 sequence (Q9NUW8 whole entry H493R): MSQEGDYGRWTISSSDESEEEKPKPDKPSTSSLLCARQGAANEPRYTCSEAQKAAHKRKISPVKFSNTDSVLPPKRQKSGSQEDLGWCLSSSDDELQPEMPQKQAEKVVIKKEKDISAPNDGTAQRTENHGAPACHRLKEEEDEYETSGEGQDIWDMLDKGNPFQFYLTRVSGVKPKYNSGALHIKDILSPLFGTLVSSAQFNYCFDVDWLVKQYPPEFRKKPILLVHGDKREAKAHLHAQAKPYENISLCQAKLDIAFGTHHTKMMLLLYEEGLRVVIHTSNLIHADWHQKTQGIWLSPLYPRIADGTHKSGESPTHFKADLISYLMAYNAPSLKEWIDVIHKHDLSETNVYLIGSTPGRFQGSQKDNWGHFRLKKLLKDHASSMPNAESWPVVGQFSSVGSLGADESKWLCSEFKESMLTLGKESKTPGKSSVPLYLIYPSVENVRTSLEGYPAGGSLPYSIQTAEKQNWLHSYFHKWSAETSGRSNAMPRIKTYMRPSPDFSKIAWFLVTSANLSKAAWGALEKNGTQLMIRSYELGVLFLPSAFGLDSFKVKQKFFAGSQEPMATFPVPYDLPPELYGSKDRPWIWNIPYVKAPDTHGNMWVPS
From the text: The recombinant tyrosyl-DNA phosphodiesterase 1 and the mutant form of TDP1 with substitution (H493R) were expressed in the E. coli system (plasmids pET16B-TDP1 and pET16B-SCAN1 were provided by Dr. K.W. Caldecott, University of Sussex, United Kingdom and by Dr. S. El-Khamisy, University of Sheffield, United Kingdom) and purified according to the previously described technique.
as §1
The IC50 values obtained by the fluorescence real-time assay on a single-stranded oligonucleotide (section 3.1) were higher than 100 μM.

[8] = test system: WI-38 cell line (noncancerous fibroblasts derived from lung tissue); assay: MTT test, cytotoxicity and combination with topotecan, WI-38; format: cell-based, human; conditions: WI-38 non-cancerous cell line
Description: as §4, §5, §6

[9] = Cornish-Bowden method, read-out: Inhibition constant, KI

T1 sequence (Q9NUW8 whole entry): as the sequence (Q9NUW8 whole entry H493R) above, with R493H counted along it

Row | Type of inhibition [3] | Ki [3, 9] | IC50 ([1]; single-stranded fluorescent biosensor 50 nM, TDP1 1.5 nM, 26 °C, read-out: IC50 (half-maximal inhibitory concentration) of TDP1 activity) | Change of fluorescence anisotropy with inhibitor concentration [4] | Type of inhibition [5] | Ki [5, 9] | IC50 [7] | SMILES | Inhibitory effect on TDP1 activity (in words) [1] | IC50 [2] | Synergistic coefficient (SC) with topotecan ([6]; MTT, inhibitor in combination with topotecan, SC < 1 indicates synergy) | Effect on cytotoxic effect of topotecan (in words) ([6]; non-toxic inhibitor concentrations) | Synergy with topotecan (in words) [8]
1 | – | – | – | – | – | – | – | Cc1cn([C@H]2C[C@H](O[C@@H]3O[C@H](CO)[C@@H](O)[C@H]3O)[C@@H](CO)O2)c(=O)[nH]c1=O [Compound 24] | not inhibited | 38 ± 4 µM | – | – | –
2 | – | – | – | – | – | – | – | Cc1cn([C@H]2C[C@H](O[C@@H](C=O)O[C@@H](C=O)CO)[C@@H](CO)O2)c(=O)[nH]c1=O [Compound 29] | did not lead to the noticeable inhibitory activity | 25 ± 3 µM | – | – | –
3 | Uncompetitive | 0.6 ± 0.3 µM | 2.8 ± 0.2 µM | anisotropy remained unchanged | Uncompetitive | 2.1 ± 0.5 µM | > 100 µM | O=C(OC[C@H]1O[C@@H](O[C@H]2C[C@H](n3cc(I)c(=O)[nH]c3=O)O[C@@H]2CO)[C@H](OC(=O)c2ccccc2)[C@@H]1OC(=O)c1ccccc1)c1ccccc1 [Compound 41] | – | – | less than or equal to 0.7 | significant increase of cytotoxic effect of topotecan | demonstrated synergy with topotecan

Source: paper PMC6136360, “Novel group of tyrosyl-DNA-phosphodiesterase 1 inhibitors based on disaccharide nucleosides as drug prototypes for anti-cancer therapy” (Journal of Enzyme Inhibition and Medicinal Chemistry, 2018)
